Source: PubChem BioAssay (NCI)
Several values for one entry are separate records, joined by “and”; a condition that tells them apart may be missing. Equal entries are not always repeated.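 Cultured in 96-well plates, cells were exposed to test compound for 48 hours across five concentrations. Abbreviation: GI50, concentration required for 50% inhibition of growth. TGI marks complete inhibition of growth.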

Assays:
Test in all cases: growth of human tumour cells (NCI), 48 h
RXF 393 renal = tested on: RXF 393 renal
OVCAR-3 ovarian = tested on: OVCAR-3 ovarian
MOLT-4 leukemia = tested on: MOLT-4 leukemia
SW-620 colon = tested on: SW-620 colon
SF-268 CNS = tested on: SF-268 CNS
BT-549 breast = tested on: BT-549 breast
IGROV1 ovarian = tested on: IGROV1 ovarian
K-562 leukemia = tested on: K-562 leukemia
NCI-H226 lung = tested on: NCI-H226 lung
A549 NSCLC = tested on: A549 NSCLC
HT29 colon = tested on: HT29 colon
NCI-H460 lung = tested on: NCI-H460 lung
MDA-MB-435 = tested on: MDA-MB-435
UACC-62 melanoma = tested on: UACC-62 melanoma
HCT-116 colon = tested on: HCT-116 colon
NCI/ADR-RES ovarian = tested on: NCI/ADR-RES ovarian
T-47D breast = tested on: T-47D breast
LOX IMVI melanoma = tested on: LOX IMVI melanoma
786-0 renal = tested on: 786-0 renal
NCI-H23 lung = tested on: NCI-H23 lung
UACC-257 melanoma = tested on: UACC-257 melanoma
HS 578T breast = tested on: HS 578T breast
DU-145 prostate = tested on: DU-145 prostate
HL-60(TB) leukemia = tested on: HL-60(TB) leukemia
SNB-75 CNS = tested on: SNB-75 CNS
SN12C renal = tested on: SN12C renal
MCF7 breast = tested on: MCF7 breast
EKVX NSCLC = tested on: EKVX NSCLC
HOP-62 NSCLC = tested on: HOP-62 NSCLC
HOP-92 NSCLC = tested on: HOP-92 NSCLC
OVCAR-4 ovarian = tested on: OVCAR-4 ovarian
NCI-H522 lung = tested on: NCI-H522 lung
HCT-15 colon = tested on: HCT-15 colon
OVCAR-8 ovarian = tested on: OVCAR-8 ovarian
OVCAR-5 ovarian = tested on: OVCAR-5 ovarian
HCC-2998 colon = tested on: HCC-2998 colon
SK-OV-3 ovarian = tested on: SK-OV-3 ovarian
MDA-MB-231 breast = tested on: MDA-MB-231 breast
ACHN renal = tested on: ACHN renal
U251 CNS = tested on: U251 CNS
UO-31 renal = tested on: UO-31 renal
CCRF-CEM leukemia = tested on: CCRF-CEM leukemia
MALME-3M melanoma = tested on: MALME-3M melanoma
SR leukemia = tested on: SR leukemia
A498 renal = tested on: A498 renal
TK-10 renal = tested on: TK-10 renal
SF-295 CNS = tested on: SF-295 CNS
COLO 205 colon = tested on: COLO 205 colon
SK-MEL-28 melanoma = tested on: SK-MEL-28 melanoma
KM12 colon = tested on: KM12 colon
SNB-19 CNS = tested on: SNB-19 CNS
PC-3 prostate = tested on: PC-3 prostate
CAKI-1 renal = tested on: CAKI-1 renal
SF-539 CNS = tested on: SF-539 CNS
M14 melanoma = tested on: M14 melanoma
SK-MEL-5 melanoma = tested on: SK-MEL-5 melanoma
RPMI-8226 leukemia = tested on: RPMI-8226 leukemia
SK-MEL-2 melanoma = tested on: SK-MEL-2 melanoma

Structure (SMILES): NC[C@@](O)(c1ccc(Cl)cc1)c1ccc(-c2cn[nH]c2)cc1
- GI50 (RXF 393 renal): 298 nM and 328 nM
- TGI (RXF 393 renal): 2510 nM and 2050 nM
- GI50 (OVCAR-3 ovarian): 3220 nM and 1960 nM
- TGI (OVCAR-3 ovarian): > 25600 nM and 4440 nM
- GI50 (MOLT-4 leukemia): 2140 nM and 1980 nM
- TGI (MOLT-4 leukemia): > 100000 nM
- GI50 (SW-620 colon): 2130 nM and 1560 nM
- GI50 (SF-268 CNS): 1240 nM and 1280 nM
- TGI (SF-268 CNS): > 100000 nM
- GI50 (BT-549 breast): 892 nM and 1130 nM
- TGI (BT-549 breast): 3910 nM and 7630 nM
- GI50 (IGROV1 ovarian): 430 nM and 272 nM
- TGI (IGROV1 ovarian): 1460 nM
- GI50 (K-562 leukemia): 1690 nM
- TGI (K-562 leukemia): 3530 nM
- GI50 (NCI-H226 lung): 1420 nM and 2190 nM
- TGI (NCI-H226 lung): > 100000 nM
- GI50 (A549 NSCLC): 1500 nM and 1410 nM
- TGI (A549 NSCLC): 4080 nM and 3210 nM
- GI50 (HT29 colon): 1980 nM
- TGI (HT29 colon): 7260 nM
- GI50 (NCI-H460 lung): 3080 nM and 2830 nM
- TGI (NCI-H460 lung): > 100000 nM
- GI50 (MDA-MB-435): 1810 nM
- TGI (MDA-MB-435): 3610 nM
- GI50 (UACC-62 melanoma): 3200 nM
- TGI (UACC-62 melanoma): > 10000 nM
- GI50 (HCT-116 colon): 1440 nM
- TGI (HCT-116 colon): 3190 nM
- GI50 (NCI/ADR-RES ovarian): 3480 nM and 2200 nM
- GI50 (T-47D breast): 1420 nM and 1230 nM
- TGI (T-47D breast): 2870 nM and 2830 nM
- GI50 (LOX IMVI melanoma): 1590 nM
- TGI (LOX IMVI melanoma): 3040 nM
- GI50 (786-0 renal): 341 nM and 473 nM
- TGI (786-0 renal): 10600 nM and 2200 nM
- TGI (NCI-H23 lung): > 100000 nM
- GI50 (UACC-257 melanoma): 1700 nM
- TGI (UACC-257 melanoma): 4570 nM
- GI50 (HS 578T breast): 471 nM and 173 nM
- GI50 (DU-145 prostate): 3270 nM and 2490 nM
- TGI (DU-145 prostate): > 100000 nM
- GI50 (HL-60(TB) leukemia): 1700 nM
- TGI (HL-60(TB) leukemia): 4130 nM
- GI50 (SNB-75 CNS): 110 nM and 245 nM
- TGI (SNB-75 CNS): 2410 nM and 3600 nM
- GI50 (SN12C renal): 2390 nM and 1880 nM
- TGI (SN12C renal): > 100000 nM
- GI50 (MCF7 breast): 1100 nM
- TGI (MCF7 breast): 2540 nM
- GI50 (EKVX NSCLC): 556 nM
- TGI (EKVX NSCLC): > 10000 nM
- GI50 (HOP-62 NSCLC): 2040 nM and 890 nM
- TGI (HOP-62 NSCLC): > 100000 nM
- GI50 (HOP-92 NSCLC): 44.5 nM and 37.6 nM
- TGI (HOP-92 NSCLC): 1850 nM and 1450 nM
- GI50 (OVCAR-4 ovarian): 1400 nM
- TGI (OVCAR-4 ovarian): 2860 nM
- GI50 (NCI-H522 lung): 1450 nM
- TGI (NCI-H522 lung): 3530 nM
- GI50 (HCT-15 colon): 867 nM
- TGI (HCT-15 colon): 2700 nM
- GI50 (OVCAR-8 ovarian): 1630 nM
- TGI (OVCAR-8 ovarian): 3430 nM
- GI50 (OVCAR-5 ovarian): 8670 nM
- TGI (OVCAR-5 ovarian): > 10000 nM
- GI50 (HCC-2998 colon): > 100000 nM
- TGI (HCC-2998 colon): > 100000 nM
- GI50 (SK-OV-3 ovarian): 2230 nM
- TGI (SK-OV-3 ovarian): > 10000 nM
- GI50 (MDA-MB-231 breast): 3240 nM and 2760 nM
- TGI (MDA-MB-231 breast): 52300 nM and > 10000 nM
- GI50 (ACHN renal): 1640 nM
- TGI (ACHN renal): 4930 nM
- GI50 (U251 CNS): 1490 nM
- TGI (U251 CNS): 3000 nM
- GI50 (UO-31 renal): 583 nM and 747 nM
- GI50 (CCRF-CEM leukemia): 2410 nM and 824 nM
- GI50 (MALME-3M melanoma): 1570 nM
- TGI (MALME-3M melanoma): 3080 nM
- GI50 (SR leukemia): 1160 nM
- TGI (SR leukemia): 4640 nM
- GI50 (A498 renal): 438 nM and 313 nM
- TGI (A498 renal): > 23500 nM and 7450 nM
- GI50 (TK-10 renal): 83 nM and 268 nM
- TGI (TK-10 renal): 875 nM and 1540 nM
- GI50 (SF-295 CNS): 969 nM
- TGI (SF-295 CNS): 4620 nM
- GI50 (COLO 205 colon): 1480 nM
- TGI (COLO 205 colon): 3180 nM
- GI50 (SK-MEL-28 melanoma): 3970 nM
- TGI (SK-MEL-28 melanoma): > 10000 nM
- GI50 (KM12 colon): 3440 nM and 3480 nM
- TGI (KM12 colon): > 100000 nM
- GI50 (SNB-19 CNS): 3750 nM and 1820 nM
- GI50 (PC-3 prostate): 3890 nM and 2190 nM
- TGI (PC-3 prostate): > 100000 nM
- GI50 (CAKI-1 renal): 730 nM and 1270 nM
- GI50 (SF-539 CNS): 1010 nM
- TGI (SF-539 CNS): 2360 nM
- GI50 (M14 melanoma): 2340 nM
- TGI (M14 melanoma): 5980 nM
- TGI (SK-MEL-5 melanoma): > 100000 nM
- GI50 (RPMI-8226 leukemia): 2230 nM
- TGI (RPMI-8226 leukemia): 4950 nM
- GI50 (SK-MEL-2 melanoma): 1890 nM
- TGI (SK-MEL-2 melanoma): 4500 nM
